Like-named read-outs stand apart in the source and are kept apart here.
Legend:
[1] = tested on: MCF-7 (human adenocarcinoma) cells; test: WST-1 antiproliferative assay, MCF-7; format: cell-based; conditions: 3–4 days, 0.5–250 µM, neg = negative in concentration used; for IC50: read-out: IC50 ± SD, MCF-7
Description: (§1) Encouraged by promising results in the field of antiproliferative derivatives of acetylenic sulfanylquinoline derivatives, in this study the decision was made to combine the biological potentials of sulfamoylquinoline and alkynyl moieties, with the intention of obtaining compounds with better activity against breast cancer cell lines. The SAR analyses of the acetylenic sufamoylquinoline were based on the cell growth inhibition potencies on the MCF-7 (human adenocarcinoma), MDA-MB-231 and T-47D (human ductal carcinoma) cells using the WST-1 assay. The results from the in vitro cytotoxicity assay are expressed as the concentration of compound (µM) that inhibited the proliferation of 50% of the tumor cells, compared to the control untreated cells (IC50). Cisplatin was used as a positive control to induce cell death.
(§2) The cell lines (MCF-7, MDA-MB-231, and nontumor HFF-1) were cultured and kept in Dubecco’s modified Eagle medium (DMEM) supplemented with 10% fetal bovine serum (FBS) 1.000 IU·mL^−1 penicillin and 10 mg·m^−1·mL^−1 streptomycin in atmosphere with 5% CO2 at 37 °C. The cells were seeded using a series of standard 96-well plates (Corning). Test compounds were prepared at a concentration of 5.0 mM dimethyl sulfoxide (DMSO). Freshly prepared dilutions of the test compounds in a culture medium at a concentration of 0.5–250 µM were added to the microtiter plates and the cells were grown for 3–4 days. Solvent control (DMSO) was included to check its potential inhibitory activity at the concentration used. After incubation, the cell growth rate was evaluated by performing a WST-1 assay. The amount of formazan produced was measured at 450 nm. Expermentally determined absorbance values were transformed into the cell percentage of growth as described previously. Each test point was performed in triplicate for each tested compound cocentration. The results were statistically analyzed using PraphPad Prism 6 software (Graphpad Software, Inc., La Jolla, CA, USA).

[2] = tested on: T47D (human ductal carcinoma) cells; test: WST-1 antiproliferative assay, T47D; format: cell-based; conditions: WST-1 assay, 3–4 days, 0.5–250 µM, neg = negative in concentration used; for IC50: read-out: IC50 ± SD, T47D
Description: as §1, §2

[3] = tested on: MDA-MB-231 cells; test: WST-1 antiproliferative assay, MDA-MB-231; format: cell-based, human; conditions: 3–4 days, 0.5–250 µM, neg = negative in concentration used, read-out: IC50 ± SD, MDA-MB-231
Description: as §1, §2

[4] = tested on: HFF-1 normal fibroblasts; test: WST-1 cytotoxicity assay, normal fibroblasts HFF-1; format: cell-based, human; conditions: 3–4 days, 0.5–250 µM, neg = negative in concentration used; for IC50: read-out: IC50 ± SD, HFF-1
Description: as §1, §2

[5] = Homo sapiens, MCF7, WST-1 assay
[6] = Homo sapiens, MDA-MB-231, WST-1 assay
[7] = Homo sapiens, HFF-1, WST-1 assay

| Structure (SMILES) | IC50 [1, 5] [µM] | IC50 ± SD, T47D [2] | IC50 [3, 6] [µM] | IC50 [4, 7] [µM] | melting point [°C] | IC50 ([2]; Homo sapiens, T47D) [µM] | IC50 ± SD, HFF-1 ([4]; WST-1 assay) | IC50 ([1]; WST-1 assay) [µM] | IC50 [2] [µM] | IC50 ([3]; WST-1 assay) [µM] | IC50 ([4]; WST-1 assay) [µM] | IC50 ± SD, MCF-7 ([1]; WST-1 assay) | IC50 ([2]; listed as 4-(3-propynylthio)-7-[N-methyl-N-(3-propynyl)sulfamoyl]quinoline) [µM] |
| --- | --- | --- | --- | --- | --- | --- | --- | --- | --- | --- | --- | --- | --- |
| C#CC[Se]c1ccnc2ccc(S(=O)(=O)N(C)CC#C)cc12 [6d, 4-(3-Propynylseleno)-6-[N-methyl-N-(3-propynyl)sulfamoyl]quinoline] | 259 ± 5.45 | neg | 0.68 ± 0.09 | 331 ± 4 | 139 to 140 |  |  |  |  |  |  |  |  |
| C#CC[Se]c1ccnc2cc(S(=O)(=O)N(C)CC#C)ccc12 [6e, 4-(3-Propynylseleno)-7-[N-methyl-N-(3-propynyl)sulfamoyl]quinoline] | 109 ± 2.11 |  | 23.5 ± 1.02 |  | 108 to 109 | 160 ± 3.23 | neg |  |  |  |  |  |  |
| C#CC[Se]c1ccnc2c(S(=O)(=O)N(C)CC#C)cccc12 [6f, 4-(3-Propynylseleno)-8-[N-methyl-N-(3-propynyl)sulfamoyl]quinoline] | 0.26 ± 0.01 |  | 64.5 ± 1.98 | 317 ± 5.46 | 111 to 115 | 55.6 ± 1.78 |  |  |  |  |  |  |  |
| N.N.[Cl][Pt][Cl] [Cisplatin, reference compound] |  |  |  |  |  |  |  | 77.76 ± 0.76 | 30.3 ± 0.34 | 17.6 ± 0.31 | 7.2 ± 0.6 |  |  |
| C#CCSc1c(S(=O)(=O)N(C)CC#C)cnc2ccccc12 [5c, 4-(3-Propynylthio)-3-[N-methyl-N-(3-propynyl)sulfamoyl]quinoline] |  |  | 116 ± 2.13 |  | 101 to 102 | 205 ± 6.02 | neg |  |  |  |  | neg |  |
| C#CCSc1ccnc2ccc(S(=O)(=O)N(C)CC#C)cc12 [5d, 4-(3-Propynylthio)-6-[N-methyl-N-(3-propynyl)sulfamoyl]quinoline] | 236.8 ± 2.34 | neg | 202 ± 5.46 |  | 139 to 140 |  | neg |  |  |  |  |  |  |
| C#CCN(C)S(=O)(=O)c1cccc2c(Cl)ccnc12 [2f, 4-Chloro-8-[N-methyl-N-(3-propynyl)sulfamoyl]quinoline] | 61.2 ± 1.65 |  | 204 ± 3.1 | 153 ± 3 | 130 to 133 | 295.6 ± 2.56 |  |  |  |  |  |  |  |
| C#CCN(C)S(=O)(=O)c1cnc2ccc(Cl)cc2c1 [compound 14, 6-Chloro-3-[N-methyl-N-(3-propynyl)sulfamoyl]quinoline] | 118 ± 2.04 |  | 26.8 ± 1.45 | 71.8 ± 1.6 | 146 to 147 | 11.7 ± 1.11 |  |  |  |  |  |  |  |
| C#CC[Se]c1ccc2cc(S(=O)(=O)N(C)CC#C)ccc2n1 [6b, 2-(3-Propynylseleno)-6-[N-methyl-N-(3-propynyl)sulfamoyl]quinoline] | 22.72 ± 0.12 |  |  | 92.9 ± 2 | 179 to 180 | 10.6 ± 0.15 |  |  |  | 1.32 ± 0.12 |  |  |  |
| C#CCN(C)S(=O)(=O)c1ccc2nccc(Cl)c2c1 [2d, 4-Chloro-6-[N-methyl-N-(3-propynyl)sulfamoyl]quinoline] | 233.8 ± 1.56 |  | 180 ± 2.35 | 425.2 ± 1.46 | 124 to 125 | 292 ± 2.34 |  |  |  |  |  |  |  |
| C#CC[Se]c1c(S(=O)(=O)N(C)CC#C)cnc2ccccc12 [6c, 4-(3-Propynylseleno)-3-[N-methyl-N-(3-propynyl)sulfamoyl]quinoline] | 113 |  | 17.6 ± 0.87 |  | 122 to 123 | 313 ± 7.98 | neg |  |  |  |  |  |  |
| C#CC[Se]c1nc2ccccc2cc1S(=O)(=O)N(C)CC#C [6a, 2-(3-Propynylseleno)-3-[N-methyl-N-(3-propynyl)sulfamoyl]quinoline] | 237.9 ± 2.11 |  | 0.42 ± 0.01 |  | 109 to 110 | 146 ± 1.98 | neg |  |  |  |  |  |  |
| C#CCSc1ccnc2cc(S(=O)(=O)N(C)CC#C)ccc12 [5e, 4-(3-Propynylthio)-7-[N-methyl-N-(3-propynyl)sulfamoyl]quinoline] | 0.27 ± 0.03 |  | 7.12 ± 0.78 | 276.1 ± 2.6 | 113 to 114 |  |  |  | 0.21 ± 0.01 |  |  |  | 0.07 |
| O=S(=O)(Cl)c1cnc2ccc(Cl)cc2c1 [compound 13, 6-chloro-3-chlorosulfonylquinoline] |  |  |  |  | 109 to 110 |  |  |  |  |  |  |  |  |
| C#CCN(C)S(=O)(=O)c1cc2ccccc2nc1Cl [2a, 2-Chloro-3-[N-methyl-N-(3-propynyl)sulfamoyl]quinoline] | 351 ± 6.32 | neg ^1 | 140 ± 1.98 |  | 110 to 111 |  | neg |  |  |  |  |  |  |
| C#CCSc1ccc2cc(S(=O)(=O)N(C)CC#C)ccc2n1 [5b, 2-(3-Propynylthio)-6-[N-methyl-N-(3-propynyl)sulfamoyl]quinoline] | 18.4 ± 0.98 |  |  |  | 164 to 165 | 182 ± 3.23 | neg |  |  | 0.27 ± 0.03 |  |  |  |
| C#CCN(C)S(=O)(=O)c1ccc2nc(Cl)ccc2c1 [2b, 2-Chloro-6-[N-methyl-N-(3-propynyl)sulfamoyl]quinoline] | 22.9 ± 1.45 |  | 0.24 ± 0.01 |  | 140 to 141 | 0.3 ± 0.03 | neg |  |  |  |  |  |  |
| C#CCSc1ccc2ncc(SCC#C)cc2c1 [compound 11, 3,6-Di(3-propynylthio)quinoline] | 7.36 ± 0.45 |  | 8.73 ± 0.78 | 176 ± 3 | 97 to 98 | 127 ± 2.01 |  |  |  |  |  |  |  |
| C#CCSc1nc2ccccc2cc1S(=O)(=O)N(C)CC#C [5a, 2-(3-Propynylthio)-3-[N-methyl-N-(3-propynyl)sulfamoyl]quinoline] | 288 ± 3.45 | neg | 11.8 ± 0.87 |  | 100 to 101 |  | neg |  |  |  |  |  |  |
| C#CCN(C)S(=O)(=O)c1ccc2c(Cl)ccnc2c1 [2e, 4-Chloro-7-[N-methyl-N-(3-propynyl)sulfamoyl]quinoline] |  |  | 59.3 ± 1.56 |  | 119 to 120 | 26.8 ± 0.67 | neg |  |  |  |  |  |  |
| C#CCN(C)S(=O)(=O)c1ccc2ncc(S(=O)(=O)N(C)CC#C)cc2c1 [compound 12, 3,6-Di[N-methyl-N-(3-propynyl)sulfamoyl]quinoline] | 3.14 ± 0.34 |  | 2.86 ± 0.34 | 375.5 ± 3 | 138 to 139 | 2.5 ± 0.09 |  |  |  |  |  |  |  |
| C#CCN(C)S(=O)(=O)c1cnc2ccccc2c1Cl [2c, 4-Chloro-3-[N-methyl-N-(3-propynyl)sulfamoyl]quinoline] |  |  | 0.27 ± 0.02 | 85.4 ± 1.6 | 120 to 121 | 2.24 ± 0.11 |  |  |  |  |  |  |  |

Source: PMC6155812, “Synthesis, Anti-Breast Cancer Activity, and Molecular Docking Study of a New Group of Acetylenic Quinolinesulfonamide Derivatives” (Molecules : A Journal of Synthetic Chemistry and Natural …, 2017)
